For data set [1] the following is noted: cited from earlier work.
For data set [2] the following is noted: passive experiments; cited from earlier work.
The procedure of data set [3]: Human cadaver skin epidermis was prepared by first separating skin from the underlying fat and then separating the epidermis by heat treatment at 60° C. for 90 seconds using standard techniques.
An apparatus as described in FIG. 6 was assembled, wherein each plate in the apparatus was a rectangular shape having dimensions of 5.030″ (127.76 mm) by 3.365″ (85.48 mm). The apparatus was assembled by first placing a ⅛″ (3.175 mm) thick clear polycarbonate spacer plate 620 on top of an aluminum base plate 610 and aligning screw holes 622 in the spacer plate with screw holes 612 in the base plate. Thereafter, a 4×4 sample array was created on spacer plate 620, as described in Table 2 below:
Punched samples were placed on spacer plate 620 in the 4×4 array of Table 2 one at a time, and the location of each array sample was selected using guide marks 614 on base plate 610 to ensure that each array sample was placed such that it aligned with a donor reservoir 654 in reservoir plate 650. There were 96, 0.020″ (0.508 mm) deep, guide marks 614 on base plate 610, arranged in a 12×8 array which was located 11.24 mm in from the edges of the long sides of base plate 610, and 14.38 mm in from the edges of its short sides. At the time of placement, the release liner on each sample was removed to expose the drug reservoir/adhesive of the sample.
Array locations B3, C1, and D3 were controls without any samples in order to determine the potential impact of lateral diffusion on transdermal transport measurements with this apparatus.
Once all the samples were placed in the array, the piece of heat-stripped human cadaver skin, the size of which was larger than the array of samples, was gently and slowly placed over the samples so as to avoid any air pockets between the skin and the samples. The skin was oriented with the stratum corneum next to the samples. Then, a ¼″ (6.35 mm) thick clear polycarbonate reservoir plate 650 having an 4×4 array of ¼″ (6.35 mm) diameter donor reservoirs 654 was placed over the skin such that all of screw holes 652 on reservoir plate 650 were aligned with the corresponding screw holes 622 of spacer plate 620.
The resulting assembled apparatus 600 was clamped together by sliding a shoulder screw 660 with threads 622 through aligned screw holes 652 at each of the four corners of the assembled apparatus, and tightening each shoulder screw 660 so as to form a seal between reservoir plate 650 and the skin.
[…] of Dulbecco's Phosphate Buffered Saline (PBS) was added to each donor reservoir in the array as the reservoir medium.
After 2 hours, a […] test aliquot of reservoir medium was removed from each donor reservoir 654, and at that time, an additional […] of PBS was added into each donor reservoir 654. Each of the 2-hour test aliquots was placed in an HPLC vial and diluted to […] by addition of […] of 50:50 (v/v) 50 mM potassium phosphate (adjusted to pH 3.0 with phosphoric acid) and acetonitrile.
The foregoing process was repeated at 3 hours, 4 hours, and 5 hours.
The components of the HPLC system used to analyze the test aliquots were a Waters 2790 Separations Module, a Waters Photodiode Array Detector Model 996, and Waters Millennium 32 v3.2 Chromatography Software (Waters Corp., Milford Mass.).
The HPLC analysis was performed using a Platinum EPS C18 column (Alltech Associates, Muskegan, Mich.) with dimensions of 250 mm×4.6 mm and a […] particle size. The mobile phase was 50:50 (v/v) 50 mM potassium phosphate (adjusted to pH 3.0 with phosphoric acid): acetonitrile, with a flow rate of 1.0 ml/minute. Detection was performed by measuring UV absorbance at a wavelength of 260 nm. The run time was 4 minutes. Injection volume was […]. Column temperature was ambient.

The mark [4] stands for this setting: empty control location (B3, C1, D3), no sample: lateral diffusion, 2 hour.
Setting [5] is: empty control location (B3, C1, D3), no sample: lateral diffusion, 3 hour.
[6] abbreviates: empty control location (B3, C1, D3), no sample: lateral diffusion, 4 hour.
[7] abbreviates: sample* (A4, D1): drug reservoir came off the backing with the release liner, 2 hour.
Setting [8] is: sample* (A4, D1): drug reservoir came off the backing with the release liner, 3 hour.
Where [9] appears, read: sample* (A4, D1): drug reservoir came off the backing with the release liner, 4 hour.
[10] abbreviates: sample* (A4, D1): drug reservoir came off the backing with the release liner, 5 hour.

Where “and” joins values, the source holds several entries; their conditions need not be identical. Equal values may be shown once. Where a name gives a salt, the structure may show the parent alone. Read-outs that look alike come from different tables or passages of the source.

In the case of `CC(C)c1nc(CN(C)C(=O)N[C@H](C(=O)N[C@@H](Cc2ccccc2)C[C@H](O)[C@H](Cc2ccccc2)NC(=O)OCc2cncs2)C(C)C)cs1` [ritonavir], the “Properties: polymorphic stability” value in data set [1] (shipping and storage) is recorded as “Can undergo a polymorphic shift during”.
On to `CCCCCCCC/C=C\CCCCCCCC(=O)OCC(COC(=O)CCCCCCC/C=C\CCCCCCCC)OC(=O)CCCCCCC/C=C\CCCCCCCC` [glycerol trioleate], for which the “corticosterone flux enhancement relative to the passive flux from PBS alone” value in data set [2] is reported as 0.8.
In the case of `CCCCCCCCCCCCCC(=O)OC(C)C` [isopropyl myristate], the “corticosterone flux enhancement relative to the passive flux from PBS alone” value in data set [2] is 5.
In the case of `CCCc1nn(C)c2c(=O)[nH]c(-c3cc(S(=O)(=O)N4CCN(C)CC4)ccc3OCC)nc12` [sildenafil citrate], the “Properties: absorption / water solubility” value in data set [1] is reported as “Poor absorption due to its low water”.
Take polyethylene glycol 200 dilaurate: the “corticosterone flux enhancement relative to the passive flux from PBS alone” value in data set [2] is recorded as 2.
Consider `CC(=O)O[C@H]1C(=O)[C@@]2(C)[C@H]([C@H](OC(=O)c3ccccc3)[C@]3(O)C[C@H](OC(=O)[C@H](O)[C@@H](NC(=O)c4ccccc4)c4ccccc4)C(C)=C1C3(C)C)[C@]1(OC(C)=O)CO[C@@H]1C[C@@H]2O` [paclitaxel], for which, in data set [1], the “Properties: absorption / water solubility” value was “Poor absorption due to its low water”.
`COC1=CC(=O)C[C@@H](C)[C@]12Oc1c(Cl)c(OC)cc(OC)c1C2=O` [griseofulvin]: the “Properties: absorption / water solubility” value in data set [1] is recorded as “Poor absorption due to its low water”.
Take `CC(C)(C)NC(=O)[C@@H]1C[C@@H]2CCCC[C@@H]2CN1C[C@@H](O)[C@H](Cc1ccccc1)NC(=O)[C@H](CC(N)=O)NC(=O)c1ccc2ccccc2n1` [saquinavir]: in data set [1], the “Properties: absorption / water solubility” value is on record as “Poor absorption due to its low water”.
For the compound `CN1CCCC1c1cccnc1` (centres unmarked) [Nicotine, nicotine], in data set [3] (detected in donor reservoirs over NICODERM CQ samples), the “transdermal movement of the active component” value is recorded as “crossed the skin barrier”. Besides, the “lateral diffusion to adjacent wells” value in data set [3] (donor reservoirs not located over samples) is on record as “sufficiently slower than direct transdermal movement”. Also, the “Nicotine Concentration Of Diluted Test Aliquots” value was 2.2 mg/mL and 1.5 mg/mL and 2.6 mg/mL in data set [3] (setting [4]); 2.5 mg/mL and 3.2 mg/mL and 4.0 mg/mL in data set [3] (setting [5]); 4.8 mg/mL and 2.7 mg/mL and 4.2 mg/mL in data set [3] (setting [6]); 1.0 mg/mL and 1.1 mg/mL in data set [3] (setting [7]); 1.2 mg/mL and 1.4 mg/mL in data set [3] (setting [8]); 1.4 mg/mL and 1.6 mg/mL in data set [3] (setting [9]). For the same compound, the “Nicotine Concentration Of Diluted Test Aliquots” value in data set [3] (setting [10]) was 1.6 mg/mL and 1.8 mg/mL. The “Nicotine Concentration Of Original Test Aliquots” value is 22.0 mg/mL and 15.0 mg/mL and 26.0 mg/mL in data set [3] (setting [4]); 25.0 mg/mL and 32.0 mg/mL and 40.0 mg/mL in data set [3] (setting [5]); 48.0 mg/mL and 27.0 mg/mL and 42.0 mg/mL in data set [3] (setting [6]); 10.0 mg/mL and 11.0 mg/mL in data set [3] (setting [7]); 12.0 mg/mL and 14.0 mg/mL in data set [3] (setting [8]); 14.0 mg/mL and 16.0 mg/mL in data set [3] (setting [9]). Moreover, the “Nicotine Concentration Of Original Test Aliquots” value in data set [3] (setting [10]) is 16.0 mg/mL and 18.0 mg/mL. Further, the “Nicotine Accumulation in donor reservoir” value in data set [3] (empty control location (B3, C1, D3), no sample: lateral diffusion, 2 hr) is 1.650 mg and 1.125 mg and 1.950 mg; in data set [3] (empty control location (B3, C1, D3), no sample: lateral diffusion, 3 hr) it was 4.663 mg and 3.150 mg and 4.300 mg; in data set [3] (empty control location (B3, C1, D3), no sample: lateral diffusion, 4 hr) it was 7.075 mg and 4.375 mg and 6.450 mg; in data set [3] (empty control location (B3, C1, D3), no sample: lateral diffusion, 5 hr) it was 10.975 mg and 5.650 mg and 8.925 mg; in data set [3] (sample* (A4, D1): drug reservoir came off the backing with the release liner, 2 hr), 0.825 mg and 0.750 mg; in data set [3] (sample* (A4, D1): drug reservoir came off the backing with the release liner, 3 hr), 1.600 mg and 1.400 mg. Besides, the “Nicotine Accumulation in donor reservoir” value was 2.450 mg and 2.150 mg in data set [3] (sample* (A4, D1): drug reservoir came off the backing with the release liner, 4 hr); 3.400 mg and 3.000 mg in data set [3] (sample* (A4, D1): drug reservoir came off the backing with the release liner, 5 hr).

These data come from patent US6852526B2, “Transdermal assay with magnetic clamp” (Transform Pharmaceuticals, Inc., priority 2000, dated 2005).
